According to ChEMBL document CHEMBL3885861, “Open TG-GATES”:

Organism: Rattus norvegicus
Test: Open TG-GATES - Regimen: Daily Repeat
Type: toxicity, organism-based, Sprague-Dawley
Design: regimen Daily Repeat, gender Male, age 6 weeks
Conditions: in vivo, po, 0 mg/kg, route gavage, dose level Control; for APTT / Bas / Eos / Fbg / Hb / Ht / Lym / MCH / MCHC / MCV / Mono / Neu / PT / Plat / RBC / Ret / WBC: tissue Blood
[1] = 72 h, tissue Kidney, time 3 day
[2] = 72 h, tissue Plasma, time 3 day

Structure (SMILES): CN(C)[C@@H]1C(O)=C(C(N)=O)C(=O)[C@@]2(O)C(O)=C3C(=O)c4c(O)cccc4[C@@](C)(O)[C@H]3C[C@@H]12 [TETRACYCLINE]
- TERMINAL_BW (72 h, time 3 day): 188 g
- APTT (72 h, time 3 day): 16 s
- Bas (72 h, time 3 day): 0%
- Eos (72 h, time 3 day): 0.8%
- Fbg (72 h, time 3 day): 221 mg/dL
- Hb (72 h, time 3 day): 13.6 g/dL
- Ht (72 h, time 3 day): 41.2%
- Lym (72 h, time 3 day): 82.4%
- MCH (72 h, time 3 day): 21.9 pg
- MCHC (72 h, time 3 day): 33.1%
- MCV (72 h, time 3 day): 66 fL
- Mono (72 h, time 3 day): 6.8%
- Neu (72 h, time 3 day): 10%
- PT (72 h, time 3 day): 12.3 s
- Plat (72 h, time 3 day): 96.9 x10_4/uL
- RBC (72 h, time 3 day): 625 x10_4/ul
- Ret (72 h, time 3 day): 8.2%
- WBC (72 h, time 3 day): 111.7 x10_2/uL
- KIDNEY_L [1]: 0.9 g
- KIDNEY_R [1]: 0.9 g
- KIDNEY_TOTAL [1]: 1.7 g
- LIVER (72 h, tissue Liver, time 3 day): 9 g
- A/G [2]: 2.2
- ALP [2]: 921.6 IU/L
- ALT [2]: 43.6 IU/L
- AST [2]: 69 IU/L
- BUN [2]: 17.6 mg/dL
- CRE [2]: 0.6 mg/dL
- Ca [2]: 11.2 mg/dL
- Cl [2]: 105.4 meq/L
- DBIL [2]: 0.008 mg/dL
- GLC [2]: 183 mg/dL
- IP [2]: 8.2 mg/dL
- K [2]: 4.7 meq/L
- LDH [2]: 99.8 IU/L
- Na [2]: 140.2 meq/L
- PL [2]: 150.2 mg/dL
- RALB [2]: 4 g/dL
- TBIL [2]: 0.3 mg/dL
- TC [2]: 83.2 mg/dL
- TG [2]: 80.2 mg/dL
- TP [2]: 5.8 g/dL
- gamma-GTP [2]: 1.4 IU/L
- TERMINAL_BW ([…], time 7 day): 228 g
- TERMINAL_BW ([…], time 14 day): 287.8 g
- TERMINAL_BW ([…], time 28 day): 360.5 g
- APTT ([…], time 7 day): 18.8 s
- Bas ([…], time 7 day): 0%
- Eos ([…], time 7 day): 1%
- Fbg ([…], time 7 day): 226.7 mg/dL
- Hb ([…], time 7 day): 13.6 g/dL
- Ht ([…], time 7 day): 40.4%
- Lym ([…], time 7 day): 80.8%
- MCH ([…], time 7 day): 21.6 pg
- MCHC ([…], time 7 day): 33.5%
- MCV ([…], time 7 day): 64.3 fL
- Mono ([…], time 7 day): 6.2%
- Neu ([…], time 7 day): 12%
- PT ([…], time 7 day): 12.1 s
- Plat ([…], time 7 day): 112.5 x10_4/uL
- RBC ([…], time 7 day): 629.6 x10_4/ul
- Ret ([…], time 7 day): 6.6%
- WBC ([…], time 7 day): 142 x10_2/uL
- APTT ([…], time 14 day): 17 s
- Bas ([…], time 14 day): 0%
- Eos ([…], time 14 day): 0.6%
- Fbg ([…], time 14 day): 238.4 mg/dL
- Hb ([…], time 14 day): 13.9 g/dL
- Ht ([…], time 14 day): 41.6%
- Lym ([…], time 14 day): 80.4%
- MCH ([…], time 14 day): 20.9 pg
- MCHC ([…], time 14 day): 33.5%
- MCV ([…], time 14 day): 62.3 fL
- Mono ([…], time 14 day): 5.6%
- Neu ([…], time 14 day): 13.6%
- PT ([…], time 14 day): 11.7 s
- Plat ([…], time 14 day): 109.2 x10_4/uL
- RBC ([…], time 14 day): 668.4 x10_4/ul
- Ret ([…], time 14 day): 5.7%
- WBC ([…], time 14 day): 131 x10_2/uL
- APTT ([…], time 28 day): 17.8 s
- Bas ([…], time 28 day): 0%
- Eos ([…], time 28 day): 1.4%
- Fbg ([…], time 28 day): 235.8 mg/dL
- Hb ([…], time 28 day): 14.8 g/dL
- Ht ([…], time 28 day): 43.9%
